Columns and labels:
Assay in all cases: biochemical
Set-up in all cases: KINOMEscan competition binding panel (Eurofins DiscoverX), single concentration, percent inhibition
Settings in all cases: read-out: 15 at 1 µM % inhibition
AMPK-alpha1 = biological target: T1, AMPK-alpha1 (Homo sapiens, UniProt Q13131)
T1 construct: gene PRKAA1
Outline: (§1)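 Binding was profiled in the KINOMEscan panel of over 400 human kinases, with each compound tested at a single concentration of 1 µM to map selectivity.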

CAMK2D = CAMK2D (Homo sapiens, UniProt Q13557)
Sequence of CAMK2D (Q13557 whole entry): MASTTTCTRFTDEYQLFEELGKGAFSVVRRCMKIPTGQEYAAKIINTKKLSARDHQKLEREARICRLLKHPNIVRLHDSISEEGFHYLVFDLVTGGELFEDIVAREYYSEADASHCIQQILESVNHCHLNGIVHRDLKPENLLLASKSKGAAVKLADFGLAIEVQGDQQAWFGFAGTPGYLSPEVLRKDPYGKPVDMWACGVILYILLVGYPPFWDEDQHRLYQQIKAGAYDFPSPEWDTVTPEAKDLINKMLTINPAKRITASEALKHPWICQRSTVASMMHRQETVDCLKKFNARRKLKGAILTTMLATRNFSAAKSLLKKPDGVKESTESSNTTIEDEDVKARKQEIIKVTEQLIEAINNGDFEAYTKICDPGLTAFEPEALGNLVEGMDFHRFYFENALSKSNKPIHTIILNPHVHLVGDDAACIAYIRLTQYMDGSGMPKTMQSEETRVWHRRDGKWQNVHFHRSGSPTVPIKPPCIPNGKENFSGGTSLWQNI
Outline: as §1

CDK4-cyclinD1 = biological target: T2, CDK4-cyclinD1 (Homo sapiens, UniProt P11802)
T2 construct: cyclinD1
Outline: as §1

CSF1R = CSF1R (Homo sapiens, UniProt P07333)
Outline: as §1

DLK = biological target: T3, DLK (Homo sapiens, UniProt Q12852)
T3 construct: gene MAP3K12
Outline: as §1

DMPK2 = biological target: T4, DMPK2 (Homo sapiens, UniProt Q6DT37)
T4 construct: gene CDC42BPG
Outline: as §1

DRAK2 = biological target: T5, DRAK2 (Homo sapiens, UniProt O94768)
T5 construct: gene STK17B
T5 sequence (O94768 whole entry): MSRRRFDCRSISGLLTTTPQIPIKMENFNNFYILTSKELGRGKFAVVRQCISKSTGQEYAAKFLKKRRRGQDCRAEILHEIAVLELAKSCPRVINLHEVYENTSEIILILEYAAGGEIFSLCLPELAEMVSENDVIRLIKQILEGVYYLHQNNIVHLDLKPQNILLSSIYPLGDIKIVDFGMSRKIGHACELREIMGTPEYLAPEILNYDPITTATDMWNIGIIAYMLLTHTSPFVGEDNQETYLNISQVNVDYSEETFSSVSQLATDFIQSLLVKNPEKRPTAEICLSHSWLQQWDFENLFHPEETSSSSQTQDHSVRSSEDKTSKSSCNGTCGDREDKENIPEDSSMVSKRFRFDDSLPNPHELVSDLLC
Outline: as §1

DYRK1B = DYRK1B (Homo sapiens, UniProt Q9Y463)
Outline: as §1

FYN = FYN (Homo sapiens, UniProt P06241)
Sequence of FYN (P06241 whole entry): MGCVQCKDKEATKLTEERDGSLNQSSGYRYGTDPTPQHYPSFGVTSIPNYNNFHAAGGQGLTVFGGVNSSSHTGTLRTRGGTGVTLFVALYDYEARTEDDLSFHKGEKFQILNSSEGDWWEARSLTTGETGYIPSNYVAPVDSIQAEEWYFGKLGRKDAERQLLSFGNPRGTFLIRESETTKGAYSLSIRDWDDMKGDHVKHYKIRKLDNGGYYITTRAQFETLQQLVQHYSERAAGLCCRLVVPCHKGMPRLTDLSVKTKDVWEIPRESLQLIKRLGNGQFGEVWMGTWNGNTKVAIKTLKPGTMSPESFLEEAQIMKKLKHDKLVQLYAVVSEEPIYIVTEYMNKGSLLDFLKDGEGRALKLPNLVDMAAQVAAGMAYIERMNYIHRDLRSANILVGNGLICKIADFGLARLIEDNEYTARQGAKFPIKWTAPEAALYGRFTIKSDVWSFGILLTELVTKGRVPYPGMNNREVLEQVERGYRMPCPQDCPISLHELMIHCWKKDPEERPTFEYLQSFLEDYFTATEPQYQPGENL
Outline: as §1

GRK2 = GRK2 (Homo sapiens, UniProt P25098)
Outline: as §1

HIPK3 = HIPK3 (Homo sapiens, UniProt Q9H422)
Outline: as §1

KIT = KIT (Homo sapiens, UniProt P10721)
Outline: as §1

LRRK2 = LRRK2 (Homo sapiens, UniProt Q5S007)
Outline: as §1

MAP4K4 = MAP4K4 (Homo sapiens, UniProt O95819)
Sequence of MAP4K4 (O95819 whole entry): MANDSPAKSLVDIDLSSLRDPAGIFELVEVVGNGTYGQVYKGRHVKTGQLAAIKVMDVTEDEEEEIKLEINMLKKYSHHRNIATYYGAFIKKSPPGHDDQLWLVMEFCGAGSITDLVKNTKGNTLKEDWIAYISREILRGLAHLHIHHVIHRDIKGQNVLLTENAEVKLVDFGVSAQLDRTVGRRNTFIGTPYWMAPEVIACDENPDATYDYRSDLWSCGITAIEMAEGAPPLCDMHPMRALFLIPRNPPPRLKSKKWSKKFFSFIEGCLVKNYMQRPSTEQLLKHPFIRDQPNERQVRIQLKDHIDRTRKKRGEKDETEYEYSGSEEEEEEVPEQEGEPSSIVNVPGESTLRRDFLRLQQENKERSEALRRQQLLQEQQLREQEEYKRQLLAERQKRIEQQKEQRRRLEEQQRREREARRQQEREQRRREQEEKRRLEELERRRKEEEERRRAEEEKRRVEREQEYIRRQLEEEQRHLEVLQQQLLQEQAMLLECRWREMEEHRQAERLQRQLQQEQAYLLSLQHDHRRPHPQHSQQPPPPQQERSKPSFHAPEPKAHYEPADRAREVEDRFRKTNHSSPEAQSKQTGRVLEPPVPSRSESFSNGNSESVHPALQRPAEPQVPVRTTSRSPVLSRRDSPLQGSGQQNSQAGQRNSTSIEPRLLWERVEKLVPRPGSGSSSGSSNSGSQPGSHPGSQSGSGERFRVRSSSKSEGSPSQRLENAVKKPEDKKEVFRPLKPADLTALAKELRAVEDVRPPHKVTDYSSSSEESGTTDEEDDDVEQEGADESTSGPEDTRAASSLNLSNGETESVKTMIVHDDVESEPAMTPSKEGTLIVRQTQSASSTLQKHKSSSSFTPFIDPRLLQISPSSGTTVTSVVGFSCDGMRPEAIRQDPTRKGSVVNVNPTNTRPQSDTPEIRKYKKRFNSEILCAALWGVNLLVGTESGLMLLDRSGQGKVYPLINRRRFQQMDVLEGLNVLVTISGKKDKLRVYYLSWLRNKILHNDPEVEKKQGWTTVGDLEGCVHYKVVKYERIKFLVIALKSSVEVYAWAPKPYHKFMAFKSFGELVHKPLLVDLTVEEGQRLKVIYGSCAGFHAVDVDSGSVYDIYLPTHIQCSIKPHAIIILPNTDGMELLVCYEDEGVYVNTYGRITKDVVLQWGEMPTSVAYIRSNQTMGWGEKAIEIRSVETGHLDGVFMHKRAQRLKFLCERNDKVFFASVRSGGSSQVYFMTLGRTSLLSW
Outline: as §1

MARK3 = MARK3 (Homo sapiens, UniProt P27448)
Outline: as §1

MARK4 = MARK4 (Homo sapiens, UniProt Q96L34)
Sequence of MARK4 (Q96L34 whole entry): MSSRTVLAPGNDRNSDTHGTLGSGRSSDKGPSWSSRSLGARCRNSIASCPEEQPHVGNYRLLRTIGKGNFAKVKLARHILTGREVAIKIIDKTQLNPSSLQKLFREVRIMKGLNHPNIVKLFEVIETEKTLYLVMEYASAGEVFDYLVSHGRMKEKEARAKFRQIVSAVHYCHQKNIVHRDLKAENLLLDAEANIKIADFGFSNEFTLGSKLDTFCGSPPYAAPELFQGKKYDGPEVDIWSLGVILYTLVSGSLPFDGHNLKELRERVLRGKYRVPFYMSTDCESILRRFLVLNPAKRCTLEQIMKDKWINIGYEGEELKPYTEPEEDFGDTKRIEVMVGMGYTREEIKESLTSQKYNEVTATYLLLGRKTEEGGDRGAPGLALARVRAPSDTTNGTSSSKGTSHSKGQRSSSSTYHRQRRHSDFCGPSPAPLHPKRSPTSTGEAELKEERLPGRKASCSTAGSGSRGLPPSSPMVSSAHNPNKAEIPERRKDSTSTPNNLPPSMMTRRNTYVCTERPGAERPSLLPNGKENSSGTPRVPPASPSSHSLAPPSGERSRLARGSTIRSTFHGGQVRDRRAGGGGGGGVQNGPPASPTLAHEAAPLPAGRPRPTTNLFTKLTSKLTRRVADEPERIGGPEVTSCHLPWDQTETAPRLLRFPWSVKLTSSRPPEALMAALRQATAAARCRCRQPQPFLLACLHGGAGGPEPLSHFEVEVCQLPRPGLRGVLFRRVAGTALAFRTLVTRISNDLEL
Outline: as §1

MET = MET (Homo sapiens, UniProt P08581)
Outline: as §1

NEK1 = NEK1 (Homo sapiens, UniProt Q96PY6)
Outline: as §1

PAK4 = PAK4 (Homo sapiens, UniProt O96013)
Sequence of PAK4 (O96013 whole entry): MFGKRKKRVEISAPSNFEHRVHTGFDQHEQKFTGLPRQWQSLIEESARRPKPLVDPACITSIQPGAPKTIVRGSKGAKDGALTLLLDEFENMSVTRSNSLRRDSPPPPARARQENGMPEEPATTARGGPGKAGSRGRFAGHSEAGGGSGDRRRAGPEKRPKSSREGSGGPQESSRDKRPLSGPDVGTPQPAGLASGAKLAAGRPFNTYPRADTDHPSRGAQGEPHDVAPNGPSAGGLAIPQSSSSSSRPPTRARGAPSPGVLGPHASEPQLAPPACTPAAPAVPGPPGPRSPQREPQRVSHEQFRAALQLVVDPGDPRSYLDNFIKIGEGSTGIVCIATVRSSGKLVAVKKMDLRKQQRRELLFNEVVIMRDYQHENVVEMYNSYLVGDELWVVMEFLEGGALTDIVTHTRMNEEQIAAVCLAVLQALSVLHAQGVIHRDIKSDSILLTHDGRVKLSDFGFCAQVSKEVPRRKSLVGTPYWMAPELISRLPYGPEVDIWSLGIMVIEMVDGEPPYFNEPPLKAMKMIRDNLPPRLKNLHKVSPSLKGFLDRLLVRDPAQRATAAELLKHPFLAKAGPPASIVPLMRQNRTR
Outline: as §1

PKAC-alpha = biological target: T6, PKAC-alpha (Homo sapiens, UniProt P17612)
T6 construct: gene PRKACA
Outline: as §1

SYK = SYK (Homo sapiens, UniProt P43405)
Outline: as §1

TEC = TEC (Homo sapiens, UniProt P42680)
Outline: as §1

TXK = TXK (Homo sapiens, UniProt P42681)
Outline: as §1

[1] = biological target: T7, TYK2(JH2domain-pseudokinase) (Homo sapiens, UniProt P29597)
T7 construct: JH2domain-pseudokinase
Outline: as §1

TYRO3 = TYRO3 (Homo sapiens, UniProt Q06418)
Outline: as §1

T1 sequence (Q13131 whole entry): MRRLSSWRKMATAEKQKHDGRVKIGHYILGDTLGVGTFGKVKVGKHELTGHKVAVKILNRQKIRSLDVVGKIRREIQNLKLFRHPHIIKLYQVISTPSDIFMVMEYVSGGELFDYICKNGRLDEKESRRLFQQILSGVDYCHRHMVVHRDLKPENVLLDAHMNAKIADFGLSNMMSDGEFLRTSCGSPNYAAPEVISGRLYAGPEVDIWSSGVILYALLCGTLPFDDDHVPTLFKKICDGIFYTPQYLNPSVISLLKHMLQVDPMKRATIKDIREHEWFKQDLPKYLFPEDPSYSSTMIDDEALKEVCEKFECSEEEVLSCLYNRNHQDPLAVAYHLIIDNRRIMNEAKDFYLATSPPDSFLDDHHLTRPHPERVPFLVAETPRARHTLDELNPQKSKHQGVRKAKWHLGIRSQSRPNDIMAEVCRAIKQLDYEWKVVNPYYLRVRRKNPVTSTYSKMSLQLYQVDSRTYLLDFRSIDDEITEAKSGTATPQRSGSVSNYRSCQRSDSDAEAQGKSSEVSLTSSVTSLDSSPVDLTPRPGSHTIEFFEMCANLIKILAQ

Question: Which inhibition at 1 µM (AMPK-alpha1) does the source give for `CNS(=O)(=O)c1ccc(N(C)C)c(Nc2nc(C)nc3cc(OC)c(OC)cc23)c1` [compound 15, 3-((6,7-dimethoxy-2-methylquinazolin-4-yl)amino)-4-(dimethylamino)-N-methylbenzenesulfonamide] here?
Answer: The inhibition at 1 µM was 1%.

Question: What about the inhibition at 1 µM (CAMK2D) of the same compound?
Answer: The inhibition at 1 µM was 0%.

Question: What about the inhibition at 1 µM (CDK4-cyclinD1) of the same compound?
Answer: Its inhibition at 1 µM is 36%.

Question: And the inhibition at 1 µM (CSF1R)?
Answer: The inhibition at 1 µM was 0%.

Question: What about the inhibition at 1 µM (DLK) of the same compound?
Answer: Its inhibition at 1 µM is 12%.

Question: What about the inhibition at 1 µM (DMPK2) of the same compound?
Answer: The inhibition at 1 µM was 5%.

Question: What about the inhibition at 1 µM (DRAK2) of the same compound?
Answer: The inhibition at 1 µM was 0%.

Question: What about the inhibition at 1 µM (DYRK1B) of the same compound?
Answer: The inhibition at 1 µM was 17%.

Question: And the inhibition at 1 µM (FYN)?
Answer: Its inhibition at 1 µM is 0%.

Question: And the inhibition at 1 µM (GRK2)?
Answer: The inhibition at 1 µM was 10%.

Question: What about the inhibition at 1 µM (HIPK3) of the same compound?
Answer: The inhibition at 1 µM was 28%.

Question: And the inhibition at 1 µM (KIT)?
Answer: The inhibition at 1 µM was 10%.

Question: And the inhibition at 1 µM (LRRK2)?
Answer: The inhibition at 1 µM was 0%.

Question: And the inhibition at 1 µM (MAP4K4)?
Answer: The inhibition at 1 µM was 9%.

Question: And the inhibition at 1 µM (MARK3)?
Answer: Its inhibition at 1 µM is 0%.

Question: And the inhibition at 1 µM (MARK4)?
Answer: The inhibition at 1 µM was 0%.

Question: What about the inhibition at 1 µM (MET) of the same compound?
Answer: Its inhibition at 1 µM is 0%.

Question: What about the inhibition at 1 µM (NEK1) of the same compound?
Answer: The inhibition at 1 µM was 1%.

Question: What about the inhibition at 1 µM (PAK4) of the same compound?
Answer: Its inhibition at 1 µM is 0%.

Question: What about the inhibition at 1 µM (PKAC-alpha) of the same compound?
Answer: The inhibition at 1 µM was 0%.

Question: And the inhibition at 1 µM (SYK)?
Answer: Its inhibition at 1 µM is 0%.

Question: And the inhibition at 1 µM (TEC)?
Answer: Its inhibition at 1 µM is 13%.

Question: What about the inhibition at 1 µM (TXK) of the same compound?
Answer: Its inhibition at 1 µM is 5%.

Question: What about the inhibition at 1 µM [1] of the same compound?
Answer: Its inhibition at 1 µM is 0%.

Question: What about the inhibition at 1 µM (TYRO3) of the same compound?
Answer: Its inhibition at 1 µM is 0%.

Source: article PMC7180948, “New Insights into 4-Anilinoquinazolines as Inhibitors of Cardiac Troponin I–Interacting Kinase (TNNi3K)” (Molecules, 2020)
